Results taken from PMC5700336, “The Gastrointestinal Tract Is a Major Source of Echinocandin Drug Resistance in a Murine Model of Candida glabrata Colonization and Systemic Dissemination” (Antimicrobial Agents and Chemotherapy, 2017).

Columns and labels:
[1] = system: C. glabrata wild-type and Δmsh2 cells; assay: In vitro killing assay; assay type: cell-based, Candida glabrata; conditions: 128 μg/ml nikkomycin Z, caspofungin 0.016 to 32 μg/ml, RPMI, 37°C, 24 h; three independent experiments
Procedure: Fresh 1-ml RPMI cultures (plus necessary amino acids) of C. glabrata (1 × 10^7 cells) were incubated at 37°C while shaking (165 rpm) for 24 h in 2-fold increasing concentrations (0.016 to 32 μg/ml) of caspofungin and in the presence (128 μg/ml) or absence of nikkomycin Z. After 24 h, 100 μl of the appropriate dilutions for each culture was plated onto YPD plates. CFU were counted 24 h after plating and data represented as the CFU per milliliter that survived at each concentration of drug.

[2] = system: C. glabrata Δmsh2 mutant cells; assay: In vitro caspofungin-resistant colony frequency after nikkomycin pretreatment; assay type: cell-based, Candida glabrata; conditions: cells incubated with nikkomycin Z for 2 h prior to plating on agar with 2 μg/ml caspofungin
Procedure: FIG 4 Nikkomycin reduces C. glabrata caspofungin resistance and tolerance formation in vitro. (A) Caspofungin-resistant colony frequencies following selection on agar plates containing 2 μg/ml caspofungin. Cells were incubated with the indicated concentrations of nikkomycin Z for 2 h prior to plating. (B) Killing assay with strains grown in the presence or absence of 128 μg/ml nikkomycin Z (Nz) and increasing concentrations of caspofungin. The mean counts from three independent biological experiments ± standard deviations are shown.

[3] = Single-dose pharmacokinetics in plasma and GI lumen contents; assay type: in vivo, mice; conditions: LC-MS/MS; for large intestine mean Cmax / small intestine mean Cmax: lumen contents, mean of three mice
Procedure: Mice were colonized with ATCC 2001 and then treated (i.p.) once with 5 or 20 mg/kg caspofungin at time zero (2 days postinoculation). Three mice from each treatment group were sacrificed at each time point (0, 1, 2, 4, 8, 16, 24, and 48 h), and blood and small and large intestinal lumen contents (without intestinal walls) were collected. Fecal pellets were also collected from mice at 0, 4, 16, 24, and 48 h prior to sacrifice. Caspofungin levels in plasma and GI compartments were measured by liquid chromatography-tandem mass spectrometry (LC-MS/MS) in electrospray positive-ionization mode (ESI+) on an AB Sciex QTrap 4000 triple-quadrupole mass spectrometer combined with an Agilent 1260 high-performance liquid chromatograph (HPLC) using the Analyst software and multiple-reaction monitoring (MRM) of precursor/product transitions. The MRM transitions used were 547.50/538.40 for caspofungin and 455.4/165.2 for the internal standard verapamil. Chromatography was performed with an Agilent Zorbax SB-C8 column (2.1 by 30 mm; particle size, 3.5 μm) using a reverse-phase gradient elution. One-tenth percent formic acid in Milli-Q deionized water was used for the aqueous mobile phase and 0.1% formic acid in acetonitrile (ACN) for the organic mobile phase. Small and large intestinal contents were homogenized prior to extraction by combining 3 parts PBS buffer to 1 part GI tract contents. One milligram per milliliter dimethyl sulfoxide (DMSO) stock was serially diluted in 50/50 ACN-water to create standard curves and quality control spiking solutions. Twenty microliters of neat spiking solutions was added to 20 μl of drug-free mouse K2EDTA plasma (Bioreclamation) or GI tract homogenate, and extraction was performed by adding 200 μl of acetonitrile-methanol 50/50 protein precipitation solvent containing 10 ng/ml verapamil (Sigma). Extracts were vortexed for 5 min and centrifuged at 4,000 rpm for 5 min. The supernatants were analyzed by LC-MS. Sample analysis was accepted if the concentrations of the quality control samples were within 20% of the nominal concentration.

[4] = system: C. glabrata ATCC 2001; assay: GI yeast burden after a single caspofungin dose; assay type: in vivo, Candida glabrata
[5] = system: C. glabrata 2001 Δmsh2; assay: Systemic breakthrough (blood and organs) after dexamethasone immunosuppression; assay type: in vivo, Candida glabrata; conditions: day 15
Procedure: Six-week-old female outbred CF-1 immunocompetent mice (Charles River Laboratories) were treated (subcutaneously [s.c.]) with 320 mg/kg of piperacillin-tazobactam (PTZ; 8:1 ratio) beginning on day −2 to clear native intestinal bacterial flora. Daily PTZ treatment was maintained throughout the experiment (see Fig. 3A). On day 0, mice were inoculated via oral gavage with approximately 1.5 × 10^8 CFU of C. glabrata in 100 μl of saline. Mice were colonized with ATCC 2001 (CBS 138), clinical strains from the Perlin Laboratory collection, or mutator strain 2001 Δmsh2 ([19]). Fresh fecal samples were collected throughout the experiment to assess fungal burden in the GI tract. Daily administration of caspofungin (0.5, 5, or 20 mg/kg, i.p.), nikkomycin Z (100 mg/kg, oral) (Sigma), or saline (100 μl i.p.) was initiated on day 3 postinoculation and continued through sacrifice day (typically day 15). Caspofungin-resistant colony frequencies were determined through selection of fecal samples on yeast extract-peptone-dextrose (YPD) plates supplemented with caspofungin (2 μg/ml), PTZ (16 μg/ml), and chloramphenicol (20 μg/ml). The corticosteroid dexamethasone (DMX) was administered twice daily (100 mg/kg, i.p.) for 3 days (days 12 to 14) prior to euthanization (day 15; Fig. 3A). […]

[6] = system: C. glabrata 2001 Δmsh2; assay: Murine C. glabrata GI colonization model: GI/fecal burden under daily treatment; assay type: in vivo, Candida glabrata
Procedure: Six-week-old female outbred CF-1 immunocompetent mice (Charles River Laboratories) were treated (subcutaneously [s.c.]) with 320 mg/kg of piperacillin-tazobactam (PTZ; 8:1 ratio) beginning on day −2 to clear native intestinal bacterial flora. Daily PTZ treatment was maintained throughout the experiment (see Fig. 3A). On day 0, mice were inoculated via oral gavage with approximately 1.5 × 10^8 CFU of C. glabrata in 100 μl of saline. Mice were colonized with ATCC 2001 (CBS 138), clinical strains from the Perlin Laboratory collection, or mutator strain 2001 Δmsh2 ([19]). Fresh fecal samples were collected throughout the experiment to assess fungal burden in the GI tract. Daily administration of caspofungin (0.5, 5, or 20 mg/kg, i.p.), nikkomycin Z (100 mg/kg, oral) (Sigma), or saline (100 μl i.p.) was initiated on day 3 postinoculation and continued through sacrifice day (typically day 15). Caspofungin-resistant colony frequencies were determined through selection of fecal samples on yeast extract-peptone-dextrose (YPD) plates supplemented with caspofungin (2 μg/ml), PTZ (16 μg/ml), and chloramphenicol (20 μg/ml). The corticosteroid dexamethasone (DMX) was administered twice daily (100 mg/kg, i.p.) for 3 days (days 12 to 14) prior to euthanization (day 15; Fig. 3A). Blood, kidneys, liver, spleen, and the gastrointestinal tract components were collected on day 15 (or earlier where indicated), homogenized, and plated onto YPD plates supplemented with chloramphenicol (75 μg/ml) and ampicillin (50 μg/ml) to determine CFU levels.

[7] = single i.p. dose, both 5 and 20 mg/kg, lumen contents without intestinal walls, three mice per time point

| Compound | effect on killing by caspofungin [1] | effect on caspofungin-resistant colony frequency [2] | Tmax ([3]; mouse, plasma, ip, single i.p. dose, both 5 and 20 mg/kg, colonized CF-1 mice, three mice per time point, read-out: time of Cmax, plasma) [h] | large intestine mean Cmax ([3]; single i.p. dose 5 mg/kg) [ng/mL] | small intestine mean Cmax ([3]; single i.p. dose 5 mg/kg) [ng/mL] | large intestine mean Cmax ([3]; single i.p. dose 20 mg/kg) [ng/mL] | small intestine mean Cmax ([3]; single i.p. dose 20 mg/kg) [ng/mL] | time of Cmax, large intestine [3, 7] [h] | time of Cmax, small intestine [3, 7] [h] | GI burden levels after single dose ([4]; single i.p. dose 5 mg/kg) | GI burden levels after single dose ([4]; single i.p. dose 20 mg/kg) | bloodstream infection ([5]; caspofungin 5 mg/kg i.p. daily) | bloodstream infection ([5]; caspofungin 20 mg/kg i.p. daily) | change in GI burden ([6]; caspofungin 0.5 mg/kg i.p. daily) | change in GI burden ([6]; caspofungin 5 mg/kg i.p. daily) | decrease in average GI burden ([6]; caspofungin 20 mg/kg i.p. daily from day 3, following 5 days of treatment, 10 mice per group) [log] | GI burden after rebound to baseline ([6]; caspofungin 20 mg/kg i.p. daily, by day 11) | decrease in fecal burden ([6]; following 4 days of 20 mg/kg caspofungin) [log] | average decrease of colonization levels throughout the GI tract ([6]; following 4 days of 20 mg/kg caspofungin, one mouse per condition) [log] |
| --- | --- | --- | --- | --- | --- | --- | --- | --- | --- | --- | --- | --- | --- | --- | --- | --- | --- | --- | --- |
| C[C@@H]([C@H](N)C(=O)N[C@H](C(=O)O)[C@H]1O[C@@H](n2ccc(=O)[nH]c2=O)[C@H](O)[C@@H]1O)[C@H](O)c1ccc(O)cn1 [nikkomycin, nikkomycin Z] | increased the killing ability of caspofungin | reduced the frequency of caspofungin-resistant mutants |  |  |  |  |  |  |  |  |  |  |  |  |  |  |  |  |  |
| CC[C@H](C)C[C@H](C)CCCCCCCCC(=O)N[C@H]1C[C@@H](O)[C@@H](NCCN)NC(=O)[C@@H]2[C@@H](O)CCN2C(=O)[C@H]([C@H](O)CCN)NC(=O)[C@H]([C@H](O)[C@@H](O)c2ccc(O)cc2)NC(=O)[C@@H]2C[C@@H](O)CN2C(=O)[C@H]([C@@H](C)O)NC1=O [caspofungin] |  |  | 2 | 3800 | 9100 | 36200 | 22200 | 8 | 4 | minimal decrease and faster recovery to baseline | decreased by 16 h and then returned to original baseline levels by 48 h | no isolates were recovered from the blood | no isolates were recovered from the blood | unchanged | unchanged | ~2.5 | ~1 × 10^8 CFU/g of stool | 2.8 | 2.7 |
